According to publication PMC11866022, “Long-Chain Cyclic Arylguanidines as Multifunctional Serotonin Receptor Ligands with Antiproliferative Activity” (ACS Omega, 2025):
Values joined by “and” are separate entries in the source; they are usually repeats but may differ in a detail not shown here. Equal entries are not always repeated. Where two headings read alike, the source gives them in different places.

Key:
[1] = calibration standards, assigned values, no reference given; cited from earlier work
[2] = calibration standards, assigned values, no reference given; cited from earlier work; remark: listed apart in the source
[3] = test system: LN-229 glioblastoma cells; experiment: Antiproliferative activity (MTS), LN-229; type: cell-based, human; conditions: MTS assay, 72 h
Protocol: (§1) These cell lines were characterized by different mutation profiles, the main one being the variable status of the p53 protein. In detail, U87MG cells have a wild-type p53 protein, while astrocytoma and the rest of GBM cells harbor mutated p53 protein. Additional assays were performed on MCF7 breast cancer and AsPC-1 pancreatic cancer cells. The wide range of tested lines was aimed at screening the anticancer potential of the tested compounds. The first represents one of the most common and the second one of the most aggressive cancers in the world. Comparing the activity of compounds on GBM cells to other types of cancer may reveal their selectivity and usefulness in targeted therapies. The cytotoxicity of the compounds on normal human astrocytes (NHA) and Feline catus astrocyte (PG-4) was determined. Tests on normal lines serve to verify the potential toxicity of the tested compounds on healthy cells. Due to the targeting of CNS tumors, astrocytes were selected as normal lines.
(§2) The detailed procedure is presented in previous publications.[53] […] Cells were cultured in appropriate media, supplemented with FBS, antibiotics, and other supplements, and incubated at 37 °C with 5% CO2. […] Cell viability was assessed using the MTS assay, and the inhibitory concentration (IC50) was calculated using GraphPad Prism 8.0. Each compound was tested in triplicate across multiple experiments.

[4] = test system: normal human astrocytes (NHA); experiment: Cytotoxicity (MTS), normal human astrocytes; type: cell-based; conditions: 72 h, normal human astrocytes, MTS assay
Protocol: as §1, with “The chosen group of ligands was further examined for their ability to inhibit proliferation across multiple cancer cell lines related to the CNS system (1321N1, U87MG, LN-229, and U-251). These” for “These”
(§3) The detailed procedure is presented in previous publications.[53] Briefly, the study utilized various human cancer and normal cell lines, including LN-229 (glioblastoma), MCF7 (breast carcinoma), HepG2 (hepatoma), U-251 (glioblastoma), U87MG (glioblastoma), AsPC-1 (pancreatic adenocarcinoma), and NHA (normal human astrocytes). Cells were cultured in appropriate media, supplemented with FBS, antibiotics, and other supplements, and incubated at 37 °C with 5% CO2. Compounds were dissolved in DMSO, prepared at various concentrations (1–25 μM), and applied to the cells for 72 h. Cell viability was assessed using the MTS assay, and the inhibitory concentration (IC50) was calculated using GraphPad Prism 8.0. Each compound was tested in triplicate across multiple experiments.

U-251 glioblastoma cells = experiment: Antiproliferative activity (MTS), U-251; type: cell-based, human; conditions: MTS assay, 72 h
Protocol: as §1, §2

[5] = Affinity to phospholipids, CHI IAM (Valko protocol); type: physicochemical; conditions: IAM column
Protocol: (§4) Lipophilicity and affinity for phospholipids for each investigated molecule were assessed. Additionally, selected compounds with the highest biological activities have been characterized by their affinity plasma proteins. All experiments were performed using protocols developed by Valko.[35] These methods facilitated the calculation of chromatographic hydrophobicity indices (CHI) and plasma protein binding percentages (%PPB) in a biochromatographic experiment, with results compared to the reference. A detailed description of the experiments is provided in the Supporting Information (SI), along with the raw data. […] Although high lipophilicity may limit the medical use of the analyzed compounds since they may tend to accumulate excessively in the human body, it is remarkable that several clinically used drugs also have high lipophilicity. […] (Table 5).
(§5) The detailed procedure is presented in previous publications.[53] High-performance liquid chromatography (HPLC) analyses were conducted using the Prominence-1 LC-2030C 3D system (Shimadzu) with a DAD detector, employing three different chromatographic columns with specific stationary phases and mobile phases. The analysis was performed at 30 °C with a flow rate of 1.5 mL/min for IAM and C18 columns, and 0.9 mL/min for the Chiralpak column. Calibration standards for the columns were sourced from various suppliers and dissolved in dimethyl sulfoxide. Detection occurred in the UV range (190–300 nm) with a 5 μL injection volume. Each compound was analyzed in triplicate. Retention times for the tested compounds and calibration standards are provided in the Supporting Information (Tables S1 and S2).

[6] = Metabolic stability in mouse liver microsomes; type: in vitro ADME; conditions: MLMs, 120 min
Excerpt: Moving on to the next parameter, which is metabolism, we determined metabolic stability, using mouse liver microsomes (MLMs). […]
Main metabolic pathways are marked in red.

[7] = test system: AsPC-1 pancreatic cancer cells; experiment: Antiproliferative activity (MTS), AsPC-1; type: cell-based, human; conditions: MTS assay, 72 h
Protocol: as §1, with “The chosen group of ligands was further examined for their ability to inhibit proliferation across multiple cancer cell lines related to the CNS system (1321N1, U87MG, LN-229, and U-251). These” for “These”
as §3

MCF7 breast cancer cells = experiment: Antiproliferative activity (MTS), MCF7; type: cell-based, human; conditions: MTS assay, 72 h
Protocol: as §1, §2

[8] = Lipophilicity, chromatographic hydrophobicity index on C18 (Valko protocol); type: physicochemical
Protocol: as §4, §5

U87MG glioblastoma cells = experiment: Antiproliferative activity (MTS), U87MG; type: cell-based, human; conditions: MTS assay
Protocol: as §1, §2
Supplementary materials - Biological research
B) U87MG glioblastoma multiforme line.
and U87MG glioblastoma multiforme line for C) PP 3; D) PP 6; E) PP 8; F) PP 10; G) PP 11; H) PP

5-HT6 = target: T1, 5-HT6 (Homo sapiens, UniProt P50406); experiment: Radioligand binding assay, 5-HT6 ([3H]-LSD); conditions: HEK293 cell line with human 5-HT6R; 2 nM [3H]-LSD
T1 construct: expressed in transfected cells; host or cells: HEK293
T1 sequence (P50406 whole entry): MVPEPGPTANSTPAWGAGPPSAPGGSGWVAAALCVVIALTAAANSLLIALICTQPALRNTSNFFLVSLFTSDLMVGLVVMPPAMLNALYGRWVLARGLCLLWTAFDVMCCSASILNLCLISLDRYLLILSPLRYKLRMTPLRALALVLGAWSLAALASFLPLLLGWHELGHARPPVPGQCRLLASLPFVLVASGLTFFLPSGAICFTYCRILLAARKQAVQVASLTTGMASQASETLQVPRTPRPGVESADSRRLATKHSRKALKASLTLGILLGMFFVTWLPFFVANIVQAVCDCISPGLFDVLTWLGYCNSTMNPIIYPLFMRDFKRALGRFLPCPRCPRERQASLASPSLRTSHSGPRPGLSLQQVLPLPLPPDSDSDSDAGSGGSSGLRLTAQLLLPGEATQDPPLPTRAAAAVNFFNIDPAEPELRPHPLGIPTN
Protocol: Ligand affinity for 5-HT6 receptors was subsequently tested with a radioligand binding assay, using the HEK293 cell line with human 5-HT6R, aiming to select compounds with the strongest affinity. Three compounds belonging to 2-naphthalenesulfonamide derivatives of 3,4-dihydroquinazolin-2-amines were obtained (Table 1).
The detailed procedure is presented in previous publications.[53] Assays were performed by incubating for 1 h at 37 °C (room temperature for 5-HT1A) in 200 μL volumes on 96-well plates. The reaction was terminated by rapid filtration using Unifilter plates, and radioactivity on the filters was measured with a PerkinElmer Microbeta plate reader. Radioligands used were:
Eight concentrations (10^–4 to 10^–11 M) were tested in triplicate for each compound. Inhibition constants (Ki) were calculated using the Cheng–Prusoff equation.[54] The results are expressed as the means of at least two independent experiments.

[9] = target: T2, human serum albumin (HSA) (Homo sapiens, UniProt P02768); experiment: HSA binding by biochromatography (HSA column); type: in vitro ADME
T2 construct: purchased
T2 sequence (P02768 25-609): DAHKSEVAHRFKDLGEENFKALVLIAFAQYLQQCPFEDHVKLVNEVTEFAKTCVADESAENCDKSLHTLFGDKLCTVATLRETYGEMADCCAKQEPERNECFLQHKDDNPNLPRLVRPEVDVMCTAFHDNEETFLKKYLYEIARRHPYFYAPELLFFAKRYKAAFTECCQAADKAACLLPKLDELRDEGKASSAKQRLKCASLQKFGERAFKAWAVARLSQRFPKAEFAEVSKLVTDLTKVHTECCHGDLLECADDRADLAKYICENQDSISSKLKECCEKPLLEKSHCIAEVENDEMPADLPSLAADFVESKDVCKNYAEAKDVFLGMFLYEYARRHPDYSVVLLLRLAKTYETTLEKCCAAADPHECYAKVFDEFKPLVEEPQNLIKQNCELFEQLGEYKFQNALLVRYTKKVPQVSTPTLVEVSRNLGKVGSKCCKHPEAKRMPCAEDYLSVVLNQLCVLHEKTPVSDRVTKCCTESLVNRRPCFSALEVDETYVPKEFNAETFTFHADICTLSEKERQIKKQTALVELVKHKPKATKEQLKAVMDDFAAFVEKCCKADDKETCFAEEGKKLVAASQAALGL
Protocol: as §4, §5

1321N1 astrocytoma cells = experiment: Antiproliferative activity (MTS), 1321N1; type: cell-based, human; conditions: MTS assay
Protocol: as §1, §2
Supplementary materials - Biological research […]

HSA and AGP (24:1) = experiment: in vitro; conditions: human, plasma
[10] = test system: HSA and AGP in a ratio 24:1; conditions: human

Which “CHI IAM of the calibration set” value [1] does the source give for `CC(=O)c1ccccc1` [Acetophenone] here?
Its value is 17.2.

What about the “CHI C18 at pH 2.6 of the calibration set” value [2] of the same compound?
The value was 64.1.

For `CN(C)C/C=C/C(=O)Nc1cc2c(Nc3ccc(F)c(Cl)c3)ncnc2cc1O[C@H]1CCOC1` [Afatinib, reference compound], which IC50 ([3]; Homo sapiens, LN-229) is on record?
The IC50 was 9.8 µM.

And the IC50 ([4]; Homo sapiens, Astrocyte)?
The IC50 was 7.5 µM.

And the IC50 (U-251 glioblastoma cells; Homo sapiens, U-251)?
Its IC50 is 27 µM.

Which “CHI C18 at pH 2.6 of the calibration set” value [2] does the source give for `c1ccc2[nH]cnc2c1` [Benzimidazole] here?
Its value is 6.3.

For `CCCC(=O)c1ccccc1` [Butyrophenone], which “CHI IAM of the calibration set” value [1] is on record?
Its value is 32.

What about the “CHI C18 at pH 2.6 of the calibration set” value [2] of the same compound?
The value was 87.3.

For `COc1cc2c(c(OC)c1OC)-c1ccc(OC)c(=O)cc1[C@@H](NC(C)=O)CC2` [Colichicine], which “CHI C18 at pH 2.6 of the calibration set” value [2] is on record?
The value was 43.9.

Which “CHI C18 at pH 2.6 of the calibration set” value [2] does the source give for `c1ccc2[nH]ccc2c1` [Indole] here?
Its value is 72.1.

For `CC1NC(NCCCCCCNS(=O)(=O)c2cccc3ccccc23)=Nc2cccc(F)c21` (centres unmarked) [PP 11, N-{6-[(5-Fluoro-4-methyl-3,4-dihydroquinazolin-2-yl)amino]hexyl}naphthalene-1-sulfonamide], which “CHI IAM” value [5] is on record?
The value was 60.1.

What about the main metabolic pathway [6] of the same compound?
The main metabolic pathway was “double hydroxylation and double bond reduction”.

And the “metabolic stability, % of remaining” value [6]?
The value was 74.22%.

And the IC50 ([7]; Homo sapiens, ASPC1)?
The IC50 was 13.8 ± 0.3 µM.

What about the IC50 ([3]; Homo sapiens, LN-229) of the same compound?
The IC50 was > 25 µM.

What about the IC50 ([4]; Homo sapiens, Astrocyte) of the same compound?
The IC50 was 4.5 µM.

And the IC50 [4]?
The IC50 was 4.4 ± 1.3 µM.

What about the IC50 (MCF7 breast cancer cells; Homo sapiens, MCF7) of the same compound?
Its IC50 is 9.1 ± 0.8 µM.

What about the IC50 (U-251 glioblastoma cells; Homo sapiens, U-251) of the same compound?
The IC50 was 12.2 ± 0.3 µM.

And the “CHI C18 pH 2.6” value [8]?
The value was 103.4.

What about the “CHI C18 pH 7.4” value [8] of the same compound?
Its value is 103.1.

What about the “CHI C18 pH 10.5” value [8] of the same compound?
The value was 93.1.

What about the IC50 (U87MG glioblastoma cells; Homo sapiens, U-87 MG) of the same compound?
The IC50 was 8.5 ± 0.7 µM.

What about the Ki (5-HT6) of the same compound?
The Ki was 0.222 ± 0.056 µM.

What about the “%HSA” value ([9]; HSA column) of the same compound?
Its value is 99.2%.

And the logKHSA ([9]; HSA column)?
Its logKHSA is 1.75 and 1.8.

And the IC50 (1321N1 astrocytoma cells; Homo sapiens, 1321-N1)?
Its IC50 is 5.7 ± 0.1 µM.

Which results are given for `CCC(=O)c1ccccc1` [Propiophenone]?
CHI IAM of the calibration set [1]: 25.9; CHI C18 at pH 2.6 of the calibration set [2]: 77.4

Which “CHI C18 at pH 2.6 of the calibration set” value [2] does the source give for `Cn1c(=O)c2[nH]cnc2n(C)c1=O` [Theophylline] here?
The value was 17.9.

Which results are given for `CCCCC(=O)c1ccccc1` [Valerophenone]?
CHI IAM of the calibration set [1]: 37.3; CHI C18 at pH 2.6 of the calibration set [2]: 96.4

For `CC(=O)CC(c1ccccc1)c1c(O)c2ccccc2oc1=O` (centres unmarked) [Warfarin], which fraction unbound (HSA and AGP (24:1)) is on record?
The fraction unbound was 0.015.

What about the “PPB kD” value [10] of the same compound?
The value was 9.5 µM.

With “N-{2-[4-(1,2-Benzothiazol-3-yl)piperazin-1-yl]ethyl}-1,2-dihydroquinazolin-2-amine [PP 21]” as the compound, how does the IC50 [7] read?
The IC50 was 7.4 ± 0.5 µM.

And the IC50 [3]?
Its IC50 is 9.9 ± 0.7 µM.

And the IC50 [4]?
The IC50 was 4.7 ± 0.2 µM.

What about the IC50 (MCF7 breast cancer cells) of the same compound?
Its IC50 is > 25 µM.

What about the IC50 (U-251 glioblastoma cells) of the same compound?
Its IC50 is 13 ± 0.4 µM.

And the Ki (5-HT6)?
Its Ki is 0.605 ± 0.151 µM.

Which results are given for “N-{2-[4-(1-Benzothiophen-4-yl)piperazin-1-yl]ethyl}-1,2-dihydroquinazolin-2-amine [PP 22]”?
CHI IAM [5]: 56.4; IC50 [7]: 12.5 ± 0.4 µM; IC50 [3]: > 25 µM; IC50 [4]: 8.1 ± 0.2 µM; IC50 (MCF7 breast cancer cells): 14.5 ± 0.2 µM; IC50 (U-251 glioblastoma cells): 4.3 ± 0.6 µM; CHI C18 pH 2.6 [8]: 56.4; CHI C18 pH 7.4 [8]: 115.8; CHI C18 pH 10.5 [8]: 168.7; IC50 (U87MG glioblastoma cells): 13.8 ± 0.9 µM; Ki (5-HT6): 0.278 ± 0.07 µM; %HSA [9]: 98.4%; IC50 (1321N1 astrocytoma cells): 10.4 ± 0.6 µM
